Reference: patent US5457092A, “Methods of promoting bone growth in mammals comprising administration of modified parathyroid hormone” (Gesellschaft fur Biotechnologische Forschung mbH (GBF), priority 1987, dated 1995)

Assays:
[1] = test system: ROS 17/2.8 osteoblast-like cells; assay: Cyclic AMP production in ROS 17/2.8 osteoblast-like cells; type: cell-based, rat; settings: for Cyclic AMP, effect of fragment (experimental value/control value): control 29 ± 5.2 pmol/mg of protein
Description: When cultures of the widely used model for osteoblasts, the osteoblast-likeclone of rat osteosarcoma, ROS 17/2.8 (Endocrinology (Baltimore), 107 (1980) 1494-1503=12; Majeska et al.), were incubated with full-length PTH and PTH fragments (Table 4), cyclic AMP production was stimulated only by bPTH(1-84) and hPTH(1-34), whereas hPTH(25-39), hPTH(27-48), hPTH(28-48) and hPTH(34-47) were ineffective.

[2] = test system: ROS 17/2.8 osteoblast-like cells; assay: CK specific activity in ROS 17/2.8 osteoblast-like cells; type: cell-based, rat; settings: control 698 ± 70 nmol/min per mg of protein
[3] = test system: ROS 17/2.8 osteoblast-like cells; assay: DNA synthesis in ROS 17/2.8 osteoblast-like cells; type: cell-based, rat; settings: control 392 ± 58 c.p.m./μg of DNA
[4] = test system: rat organs (epiphysis, diaphysis, kidney); assay: CK specific activity in rat organs after i.p. injection; type: in vivo; settings: for effect on CK activity in rat organs (in words): 0.875 μg/rat; for CK specific activity, Kidney / CK specific activity, Epiphysis / CK specific activity, Diaphysis: rat; for CK specific activity, Kidney: control 1.43 ± 0.20; for CK specific activity, Epiphysis: control 15.0 ± 2.2; for CK specific activity, Diaphysis: control 26.0 ± 3.,9
Description: FIG. 13 is a graph showing the time-dependent stimulation by hPTH (28-48) of CK specific activity in rat organs. Female rats (20-25 days old) were injected i.p. with hPTH-(28-48) (1.25 μg/rat). Experimental details are as described for FIG. 10. (a) Diaphysis, (b) epiphysis, (c) kidney. *P<0.05, **P<0.01 versus controls.
FIG. 14 is a graph showing the dose-dependent stimulation of CK specific activity by hPTH (1-34) in rat organs. Female rats (20-25 days old) were injected i.p. with hPTH-(1-34). At 4 h later, rats were killed and extracts were prepared and assayed as described below. Experimental details are as described for FIG. 10 (a) Diaphysis, (b) epiphysis, (c) kidney. *P<0.05, ** P<0.01 versus controls.
FIG. 15 is a graph showing the dose-dependent stimulation of CK specific activity by hPTH (28-48) in rat organs. Female rats (20-25 days old) were injected i.p. with hPTH-(28-48). Experimental details are as described for FIG. 13 (a) Diaphysis, (b) epiphysis, (c) kidney. *P<0.05, **P<0.01 versus controls.
FIG. 16 is a graph showing the […] stimulation by bPTH (1-84) of CK specific activity in rat organs. Female rats (20-25 days old) were injected i.p. with bPTH-(1-84) (3.5 μg/rat). At the times indicated, the rats were killed and the diaphyses (a) and epiphyses (b) of long bones as well as the kidneys (c) were collected and homogenized. Extracts were prepared and assayed as described below. Results are means ±S.E.M for π=5. Statistical significance of differences between treated and control groups by Student's T test: *P<0.05; **P<0.01. Note that the activity scales differ for different organs.
Kidneys, tibia and femur were excised; the epiphyses or diaphyses of the long bones were collected and washed thoroughly with cold 0.9% NaCl. The bones were split open lengthwise and the marrow was scraped out. Organs were homogenized in ice-cold buffer containing 50 mM-Tris/HCl (pH 6.8), 5 mH-magnesium acetate. 2.5 mM-dithiothreitol, 0.4 mM-EDTA and 250 mM-sucrose using a Polytron homogenizer in 10 s bursts with intervening cooling periods. Supernatant extracts were obtained by centrifugation at 12000 g for 5 min at 4° C. CK activity was measured at 30° C. in a Gilford 250 automatic recording spectrophotometer at 340 nm using a coupled assay for ATP, in 0.5 ml of incubation mixture containing 50 mM-imidazole acetate buffer (pH 6.7), 25 mM-phosphocreatine, 20 mM-N-acetylcysteine, 20 mM-D-glucose, 10 mM-magnesium acetate, 5 mM-EDTA, 2 mM-ADP, 2 mM-NAD+, 2 mM-dithiothreitol, 50 μM-diadenosine pentaphosphate (adenylate kinase inhibitor), 5 μg of bovine serum albumin. 1.2 units of glucose-6-phosphate dehydrogenase and 0.8 units of hexokinase. Protein was determined by the Coomassie Brilliant Blue dye-binding method, with bovine serum albumin as the standard.

[5] = test system: rat organs (epiphysis, diaphysis, kidney); assay: [3H]thymidine incorporation into DNA in rat organs after i.p. injection; type: in vivo; settings: 22-24 h after injection
Description: FIG. 12 is a graph showing the time course of stimulation by hPTH (1-34) of DNA synthesis in rat organs. Female rats (20-25 days old) were injected i.p. with hPTH-(1-34) (2 μg/rat). At 2 h before the times indicated, the rats were killed and organs were removed and incubated in 2 ml of Dulbecco's modified Eagle's medium containing 5 μl of [^3 H]thymidine. (Amersham: 5 Ci/mmol) for 2 h, then washed with medium and homogenized in deionized distilled water. The total uptake of [^3 H]thymidine and acid-insoluble radioactivity was measured, as well as DNA content, as described below. , Diaphysis; O, epiphysis; Δ; kidney. P<0.01 versus controls.
The pieces were then incubated for 2 h more (the time indicated in FIG. 12) with [^3 H]thymidine (5 μci/ml; 5 Ci/mmol) at 37° C. in Dulbecco's modified Eagle's medium under an atmosphere Of […] /95% air. Total [^3 H]thymidine uptake and incorporation into trichloroacetic acid-insoluble material was measured as described in Biochem. J., 214 (1983) 293-298 (16; Somjen et al.). At no time including the 22 24 h pulse, was there any significant change in the total uptake of [^3 H]thymidine which reflects changes in the thymidine pool which, in turn, could account for changes in incorporation. DNA was determined by the Burton method; cf. Biochem. J., 62 (1956) 315-323 (17; Burton).
To corroborate that under the circumstances of these experiments the increase in CK specific activity in bone is indeed a valid marker of cell proliferation, changes in DNA synthesis were measured by [^3 H]thymidine incorporation; cf. Biochem. J., 272 (1990) 781-785 (18; Somjen et al.). The earliest time at which PTH increased [^3 H]thymidine incorporation was determined by in-jecting rats with an optimal dose of 2 μp of PTH(1-34)/rat, equivalent to 13 nM (FIG. 14) and measuring 2 h pulses of [^3 H)thymidine incorporation into DNA (FIG. 12).

[6] = test system: rat organs (epiphysis, diaphysis, kidney); assay: as above; type: in vivo; settings: rat; for [^3 H]thymidine incorporation into DNA, Kidney: control 9.0 ± 2.1; for [^3 H]thymidine incorporation into DNA, Diaphysis: control 24.1 ± 3.8; for [^3 H]thymidine incorporation into DNA, Epiphysis: control 25.8 ± 5.2
[7] = 4 h after injection of 0.875 μg
[8] = 22-24 h after injection of 0.875 μg
[9] = 22-24 h after injection of 0.876 μg
[10] = 22-24 h after injection of 1.25 μg

For “hPTH(34-47): PTH fragment 34-47, human source; comparative example (FVALGAPLAPRDAG; Parathyroid hormone; UniProt P01270 65-78, looked up, fragment) [reference compound]”, which “stimulation of cyclic AMP production (in words)” value [1] is on record?
The value was “ineffective”.

And the “Cyclic AMP, effect of fragment (experimental value/control value)” value ([1]; 500 nM)?
Its value is 0.88 ± 0.31.

What about the “CK specific activity, effect of fragment (experimental value/control value)” value ([2]; 500 nM) of the same substance?
The value was 1.07 ± 0.10.

And the “[^3 H]Thymidine incorporation, effect of fragment (experimental value/control value)” value ([3]; 500 nM)?
Its value is 1.05 ± 0.11.

And the “effect on CK activity in rat organs (in words)” value ([4]; equivalent to 14 nM)?
The value was “no effect”.

And the “CK specific activity, Kidney” value [4, 7]?
Its value is 1.64 ± 0.32 μmol/min per mg of protein.

And the “CK specific activity, Epiphysis” value [4, 7]?
The value was 16.7 ± 2.5 μmol/min per mg of protein.

And the “CK specific activity, Diaphysis” value [4, 7]?
The value was 24.9 ± 4.8 μmol/min per mg of protein.

What about the “potency in stimulating [^3 H]thymidine incorporation in diaphysis and epiphysis (in words)” value [5] of the same substance?
Its value is “inactive”.

And the “[^3 H]thymidine incorporation into DNA, Kidney” value [6, 8]?
Its value is 9.0 ± 1.9 c.p.m./pg of DNA.

And the “[^3 H]thymidine incorporation into DNA, Diaphysis” value [6, 8]?
The value was 28.6 ± 4.2 c.p.m./pg of DNA.

And the “[^3 H]thymidine incorporation into DNA, Epiphysis” value [6, 8]?
The value was 28.0 ± 7.2 c.p.m./pg of DNA.

How did the “stimulation of cyclic AMP production (in words)” value [1] turn out when “hPTH(25-39): PTH fragment 25-39, human source (RKKLQDVHNFVALGA; Parathyroid hormone; UniProt P01270 56-70, looked up, fragment)” was run?
The value was “ineffective”.

What about the “Cyclic AMP, effect of fragment (experimental value/control value)” value ([1]; 200 nM) of the same substance?
Its value is 1.05 ± 0.15.

What about the “CK specific activity, effect of fragment (experimental value/control value)” value ([2]; 200 nM) of the same substance?
The value was 1.71 ± 0.08.

And the “[^3 H]Thymidine incorporation, effect of fragment (experimental value/control value)” value ([3]; 200 nM)?
The value was 1.36 ± 0.08.

And the “effect on CK activity in rat organs (in words)” value ([4]; equivalent to 14 nM)?
Its value is “significant increase”.

What about the “CK specific activity, Kidney” value [4, 7] of the same substance?
Its value is 3.22 ± 0.78 μmol/min per mg of protein.

What about the “CK specific activity, Epiphysis” value [4, 7] of the same substance?
The value was 24.0 ± 3.2 μmol/min per mg of protein.

What about the “CK specific activity, Diaphysis” value [4, 7] of the same substance?
The value was 41.8 ± 4.9 μmol/min per mg of protein.

And the “potency in stimulating [^3 H]thymidine incorporation in diaphysis and epiphysis (in words)” value [5]?
The value was “as potent as hPTH(28-48)”.

And the “[^3 H]thymidine incorporation into DNA, Kidney” value [6, 9]?
Its value is 11.2 ± 1.9 c.p.m./pg of DNA.

What about the “[^3 H]thymidine incorporation into DNA, Diaphysis” value [6, 9] of the same substance?
Its value is 44.8 ± 4.5 c.p.m./pg of DNA.

What about the “[^3 H]thymidine incorporation into DNA, Epiphysis” value [6, 9] of the same substance?
Its value is 48.4 ± 6.6 c.p.m./pg of DNA.

Which results are given for “hPTH(28-48): mid-regional PTH fragment 28-48, human source (LQDVHNFVALGAPLAPRDAGS; Parathyroid hormone; UniProt P01270 59-79, looked up, fragment)”?
stimulation of cyclic AMP production (in words) [1]: ineffective; Cyclic AMP, effect of fragment (experimental value/control value) ([1]; 400 nM): 1.18 ± 0.28; CK specific activity, effect of fragment (experimental value/control value) ([2]; 400 nM): 1.56 ± 0.08; [^3 H]Thymidine incorporation, effect of fragment (experimental value/control value) ([3]; 400 nM): 1.56 ± 0.12; time of maximal increase of CK activity, diaphysis ([4]; 1.25 μg/rat i.p.): 1 h; time of maximal increase of CK activity, epiphysis ([4]; 1.25 μg/rat i.p.): 4 h; effect on CK activity after injection (in words) ([4]; 1.25 μg/rat i.p., equivalent to 14 nM): increased CK activity; CK activity in diaphysis over time (in words) ([4]; 1.25 μg/rat i.p., 1, 4 and 24 h): significantly increased at all three times measured; CK activity in epiphysis at 1 h (in words) ([4]; 1.25 μg/rat i.p., 1 h): significant increase; CK activity in epiphysis at 24 h (in words) ([4]; 1.25 μg/rat i.p., 24 h): no significant increase; CK specific activity in kidney at 24 h (in words) ([4]; 1.25 μg/rat i.p., 24 h): declined to close to the constitutive activity; stimulation of CK specific activity in diaphysis at the dose of maximum effect ([4]; 1.25 μg/rat, 4 h later): approx. 3 fold; dose of maximal effect on CK specific activity ([4]; i.p., 4 h later): 1.25 μg/rat; dose giving a significant increase in CK specific activity in all organs ([4]; i.p., 4 h later, diaphysis, epiphysis, kidney): 0.15 μg/rat; CK specific activity, Kidney ([4]; 4 h after injection of 1.25 μg): 2.26 ± 0.34 μmol/min per mg of protein; CK specific activity, Epiphysis ([4]; 4 h after injection of 1.25 μg): 20.9 ± 3.0 μmol/min per mg of protein; CK specific activity, Diaphysis ([4]; 4 h after injection of 1.25 μg): 37.2 ± 3.3 μmol/min per mg of protein; potency in stimulating [^3 H]thymidine incorporation in diaphysis and epiphysis (in words) [5]: as potent as bPTH(1-84); [^3 H]thymidine incorporation into DNA, Kidney [6, 10]: 11.2 ± 2.7 c.p.m./pg of DNA; [^3 H]thymidine incorporation into DNA, Diaphysis [6, 10]: 39.1 ± 8.1 c.p.m./pg of DNA; [^3 H]thymidine incorporation into DNA, Epiphysis [6, 10]: 46.7 ± 7.4 c.p.m./pg of DNA
